Assay results published in patent publication US20250213555A1, “SUBSTITUTED TETRAHYDROFURAN ANALOGS AS MODULATORS OF SODIUM CHANNELS” (VERTEX PHARMACEUTICALS INCORPORATED, priority 2021, published 2025).

Biological target: human Nav 1.8 (Homo sapiens, UniProt Q9Y5Y9)
Assay: E-VIPR assay detecting and measuring Nav inhibition properties
Assay type: cell-based
Conditions: HEK cells expressing a truncated form of human Nav 1.8; compound numbers without "*" (not marked as run in the presence of human serum); read-out: measured IC50 value in the E-VIPR Assay
Procedure, shortened: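 Nav inhibition was read by E-VIPR: cells were electrically stimulated while coumarin/oxonol FRET emissions were recorded. Cells were HEK expressing a truncated human Nav 1.8 and co-transduced with KIR2.1, and were assayed in 25% final human serum.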

human Nav 1.8, sequence (Q9Y5Y9 126-399 limits assumed): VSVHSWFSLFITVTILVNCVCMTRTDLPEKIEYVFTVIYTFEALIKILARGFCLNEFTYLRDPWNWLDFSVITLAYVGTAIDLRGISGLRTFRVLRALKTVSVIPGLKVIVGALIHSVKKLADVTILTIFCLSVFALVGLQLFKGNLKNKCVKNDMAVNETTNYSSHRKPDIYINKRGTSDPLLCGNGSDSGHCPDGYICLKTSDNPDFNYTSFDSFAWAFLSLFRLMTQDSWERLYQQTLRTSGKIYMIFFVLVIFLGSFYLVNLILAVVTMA
human Nav 1.8, sequence (Q9Y5Y9 660-890 limits assumed): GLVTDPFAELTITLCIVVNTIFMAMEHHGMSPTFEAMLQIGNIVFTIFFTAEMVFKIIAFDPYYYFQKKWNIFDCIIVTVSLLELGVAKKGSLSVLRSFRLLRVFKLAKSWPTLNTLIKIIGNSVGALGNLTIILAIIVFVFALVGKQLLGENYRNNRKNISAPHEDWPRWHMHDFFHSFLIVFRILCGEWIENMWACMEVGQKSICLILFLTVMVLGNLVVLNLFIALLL
human Nav 1.8, sequence (Q9Y5Y9 1148-1722 limits assumed): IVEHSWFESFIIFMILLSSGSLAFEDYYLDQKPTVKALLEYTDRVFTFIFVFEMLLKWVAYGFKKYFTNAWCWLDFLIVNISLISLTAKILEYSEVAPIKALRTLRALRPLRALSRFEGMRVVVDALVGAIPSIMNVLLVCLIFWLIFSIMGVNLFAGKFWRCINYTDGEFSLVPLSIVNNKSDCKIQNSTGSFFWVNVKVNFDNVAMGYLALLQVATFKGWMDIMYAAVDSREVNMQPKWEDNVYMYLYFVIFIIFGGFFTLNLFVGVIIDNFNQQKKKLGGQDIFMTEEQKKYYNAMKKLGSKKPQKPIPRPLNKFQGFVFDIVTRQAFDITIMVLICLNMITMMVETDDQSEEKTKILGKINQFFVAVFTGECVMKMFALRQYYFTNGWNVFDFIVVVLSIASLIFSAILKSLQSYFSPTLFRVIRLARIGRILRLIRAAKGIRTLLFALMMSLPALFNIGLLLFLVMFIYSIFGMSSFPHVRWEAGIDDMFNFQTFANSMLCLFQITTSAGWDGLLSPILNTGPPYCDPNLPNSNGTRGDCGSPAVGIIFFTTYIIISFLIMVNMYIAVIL

CC1C(c2ccc(F)c(F)c2OCC2CC(O)C2)C(C(=O)Nc2cccc(C(N)=O)c2)OC1(C)C(F)(F)F (single isomer, unassigned) [Compound 197, rel-(2R*,3S*,4S*,5R*)-N-(3-carbamoylphenyl)-3-(3,4-difluoro-2-(((1r,3S)-3-hydroxycyclobutyl)methoxy)phenyl)-4,5-dimethyl-5-(trifluoromethyl)tetrahydrofuran-2-carboxamide]
IC50: < 0.01 µM

C[C@H]1[C@@H](c2ccc(F)c(F)c2OC2CN(C)C2)[C@H](C(=O)Nc2ccnc(C(N)=O)c2)O[C@@]1(C)C(F)(F)F [Compound 101, 4-((2R,3S,4S,5R)-3-(3,4-difluoro-2-((1-methylazetidin-3-yl)oxy)phenyl)-4,5-dimethyl-5-(trifluoromethyl)tetrahydrofuran-2-carboxamido) picolinamide]
IC50: 0.01 to 0.1 µM

COc1c([C@H]2[C@H](C(=O)Nc3ccnc(C(=O)NCCN(C)C)c3)O[C@@](C)(C(F)(F)F)[C@H]2C)ccc(F)c1F [Compound 271, 4-((2R,3S,4S,5R)-3-(3,4-difluoro-2-methoxyphenyl)-4,5-dimethyl-5-(trifluoromethyl)tetrahydrofuran-2-carboxamido)-N-(2-(dimethylamino)ethyl)picolinamide]
IC50: < 0.01 µM

COCC1(C)CC(c2ccc(F)c(F)c2OC)C(C(=O)Nc2ccnc(C(N)=O)c2)O1 (single isomer, unassigned) [Compound 29]
IC50: ≥ 1 µM

COc1c([C@H]2[C@H](C(=O)Nc3ccnc(C(=O)N4C[C@H]5C[C@@H]4CN5)c3)O[C@@](C)(C(F)(F)F)[C@H]2C)ccc(F)c1F [Compound 254, (2R,3S,4S,5R)-N-(2-((1R,4R)-2,5-diazabicyclo[2.2.1]heptane-2-carbonyl)pyridin-4-yl)-3-(3,4-difluoro-2-methoxyphenyl)-4,5-dimethyl-5-(trifluoromethyl)tetrahydrofuran-2-carboxamide]
IC50: < 0.01 µM

C[C@H]1[C@@H](c2ccc(F)c(F)c2OCC2(O)CC2)[C@H](C(=O)Nc2ccnc(C(N)=O)c2)O[C@@]1(C)C(F)(F)F [Compound 159, 4-((2R,3S,4S,5R)-3-(3,4-difluoro-2-((1-hydroxycyclopropyl)methoxy)phenyl)-4,5-dimethyl-5-(trifluoromethyl)tetrahydrofuran-2-carboxamido)picolinamide]
IC50: < 0.01 µM

C[C@H]1[C@@H](c2ccc(F)c(F)c2OCC2(C)COC2)[C@H](C(=O)Nc2ccnc(C(N)=O)c2)O[C@@]1(C)C(F)(F)F [Compound 63, 4-((2R,3S,4S,5R)-3-(3,4-difluoro-2-((3-methyloxetan-3-yl)methoxy)phenyl)-4,5-dimethyl-5-(trifluoromethyl)tetrahydrofuran-2-carboxamido)picolinamide]
IC50: 0.01 to 0.1 µM

C[C@H]1[C@@H](c2ccc(F)c(F)c2OCCCN2CC(F)C2)[C@H](C(=O)Nc2ccnc(C(N)=O)c2)O[C@@]1(C)C(F)(F)F [Compound 133, 4-((2R,3S,4S,5R)-3-(3,4-difluoro-2-(3-(3-fluoroazetidin-1-yl)propoxy)phenyl)-4,5-dimethyl-5-(trifluoromethyl)tetrahydrofuran-2-carboxamido)picolinamide]
IC50: < 0.01 µM

C[C@H]1[C@@H](c2ccc(F)c(F)c2OCC2CCOC2)[C@H](C(=O)Nc2ccnc(C(N)=O)c2)O[C@@]1(C)C(F)(F)F (single isomer, unassigned) [Compound 67]
IC50: < 0.01 µM

C[C@H](O)COc1c([C@H]2[C@H](C(=O)Nc3ccnc(C(N)=O)c3)O[C@@](C)(C(F)(F)F)[C@H]2C)ccc(F)c1F [Compound 153]
IC50: < 0.01 µM

CNCCN(C)C(=O)c1cc(NC(=O)[C@@H]2O[C@@](C)(C(F)(F)F)[C@@H](C)[C@H]2c2ccc(F)c(F)c2OC)ccn1 [Compound 234, 4-((2R,3S,4S,5R)-3-(3,4-difluoro-2-methoxyphenyl)-4,5-dimethyl-5-(trifluoromethyl)tetrahydrofuran-2-carboxamido)-N-methyl-N-(2-(methylamino)ethyl)picolinamide]
IC50: < 0.01 µM

COc1c([C@H]2[C@H](C(=O)Nc3ccnc(C(=O)N4CCN(C)C[C@@H]4C)c3)O[C@@](C)(C(F)(F)F)[C@H]2C)ccc(F)c1F [Compound 272, (2R,3S,4S,5R)-3-(3,4-difluoro-2-methoxyphenyl)-N-(2-((S)-2,4-dimethylpiperazine-1-carbonyl)pyridin-4-yl)-4,5-dimethyl-5-(trifluoromethyl)tetrahydrofuran-2-carboxamide]
IC50: 0.01 to 0.1 µM

COc1c([C@H]2[C@H](C(=O)Nc3ccnc(C(=O)NC[C@@H]4CC(F)(F)CN4)c3)O[C@@](C)(C(F)(F)F)[C@H]2C)ccc(F)c1F [Compound 226, 4-((2R,3S,4S,5R)-3-(3,4-difluoro-2-methoxyphenyl)-4,5-dimethyl-5-(trifluoromethyl)tetrahydrofuran-2-carboxamido)-N-(((S)-4,4-difluoropyrrolidin-2-yl)methyl)picolinamide]
IC50: 0.1 to 1 µM

C[C@@H](COc1c([C@H]2[C@H](C(=O)Nc3ccnc(C(N)=O)c3)O[C@@](C)(C(F)(F)F)[C@H]2C)ccc(F)c1F)N1CC2(COC2)C1 [Compound 40, 4-((2R,3S,4S,5R)-3-(2-((S)-2-(2-oxa-6-azaspiro[3.3]heptan-6-yl)propoxy)-3,4-difluorophenyl)-4,5-dimethyl-5-(trifluoromethyl)tetrahydrofuran-2-carboxamido)picolinamide]
IC50: < 0.01 µM

C[C@H]1[C@@H](c2ccc(F)c(F)c2OCC2CN(C)C2)[C@H](C(=O)Nc2ccnc(C(N)=O)c2)O[C@@]1(C)C(F)(F)F [Compound 104, 4-((2R,3S,4S,5R)-3-(3,4-difluoro-2-((1-methylazetidin-3-yl)methoxy)phenyl)-4,5-dimethyl-5-(trifluoromethyl)tetrahydrofuran-2-carboxamido)picolinamide]
IC50: 0.01 to 0.1 µM

Cc1cnc(C(N)=O)cc1NC(=O)C1OC(C)(C(F)(F)F)C(C)C1c1ccc(F)c(F)c1OC1CC(O)C1 (centres unmarked) [Compound 203]
IC50: 0.01 to 0.1 µM

COc1c([C@H]2[C@H](C(=O)Nc3cc(C(=O)N4CCN(C)CC4)ccn3)O[C@@](C)(C(F)(F)F)[C@H]2C)ccc(F)c1F [Compound 14, (2R,3S,4S,5R)-3-(3,4-difluoro-2-methoxyphenyl)-4,5-dimethyl-N-(4-(4-methylpiperazine-1-carbonyl)pyridin-2-yl)-5-(trifluoromethyl)tetrahydrofuran-2-carboxamide]
IC50: 0.1 to 1 µM

COCc1c(F)ccc([C@@H]2[C@@H](C(=O)Nc3ccnc(C(N)=O)c3)O[C@](C)(C(F)(F)F)[C@@H]2C)c1OC (single isomer, unassigned) [Compound 139]
IC50: ≥ 1 µM

COc1c([C@H]2[C@H](C(=O)Nc3ccnc(C(=O)N4CCN(C)[C@@H]5C[C@@H]54)c3)O[C@@](C)(C(F)(F)F)[C@H]2C)ccc(F)c1F (single isomer, unassigned) [Compound 295, rel-(2R*,3S*,4S*,5R*)-3-(3,4-difluoro-2-methoxyphenyl)-4,5-dimethyl-N-(2-((1S,6R)-5-methyl-2,5-diazabicyclo[4.1.0]heptane-2-carbonyl)pyridin-4-yl)-5-(trifluoromethyl)tetrahydrofuran-2-carboxamide]
IC50: < 0.01 µM

CNCCNC(=O)c1cc(NC(=O)[C@@H]2O[C@@](C)(C(F)(F)F)[C@@H](C)[C@H]2c2ccc(F)c(F)c2OC)ccn1 [Compound 231, 4-((2R,3S,4S,5R)-3-(3,4-difluoro-2-methoxyphenyl)-4,5-dimethyl-5-(trifluoromethyl)tetrahydrofuran-2-carboxamido)-N-(2-(methylamino)ethyl)picolinamide]
IC50: < 0.01 µM

CNC(=O)c1cc(NC(=O)[C@@H]2O[C@@](C)(C(F)(F)F)[C@@H](C)[C@H]2c2ccc(F)c(F)c2OCCO)ccn1 [Compound 38, 4-((2R,3S,4S,5R)-3-(3,4-difluoro-2-(2-hydroxyethoxy)phenyl)-4,5-dimethyl-5-(trifluoromethyl)tetrahydrofuran-2-carboxamido)-N-methylpicolinamide]
IC50: < 0.01 µM

CCOc1ccc([C@@H]2[C@@H](C(=O)Nc3ccnc(C(N)=O)c3)O[C@](C)(C(F)(F)F)[C@@H]2C)c2c1OC(F)(F)O2 (single isomer, unassigned) [Compound 209]
IC50: ≥ 1 µM

C[C@H]1[C@@H](c2ccc(F)c(F)c2OCCn2ccnc2)[C@H](C(=O)Nc2ccnc(C(N)=O)c2)O[C@@]1(C)C(F)(F)F [Compound 45, 4-((2R,3S,4S,5R)-3-(2-(2-(1H-imidazol-1-yl)ethoxy)-3,4-difluorophenyl)-4,5-dimethyl-5-(trifluoromethyl)tetrahydrofuran-2-carboxamido)picolinamide]
IC50: < 0.01 µM

CC(C)(O)COc1c([C@@H]2C[C@](C)(C(F)(F)F)O[C@H]2C(=O)Nc2ccnc(C(N)=O)c2)ccc(F)c1F (relative stereo) [Compound 32, rel-4-((2R,3S,5R)-3-(3,4-difluoro-2-(2-hydroxy-2-methylpropoxy)phenyl)-5-methyl-5-(trifluoromethyl)tetrahydrofuran-2-carboxamido) picolinamide]
IC50: 0.1 to 1 µM

C[C@H]1[C@@H](c2ccc(F)c(F)c2OCCN2CC3CCC2CO3)[C@H](C(=O)Nc2ccnc(C(N)=O)c2)O[C@@]1(C)C(F)(F)F (stereo partly drawn) [Compound 124, 4-((2R,3S,4S,5R)-3-(2-(2-(2-oxa-5-azabicyclo[2.2.2]octan-5-yl)ethoxy)-3,4-difluorophenyl)-4,5-dimethyl-5-(trifluoromethyl)tetrahydrofuran-2-carboxamido)picolinamide]
IC50: < 0.01 µM

COc1c([C@H]2[C@H](C(=O)Nc3ccnc(C(=O)N4CCC45CN(C)C5)c3)O[C@@](C)(C(F)(F)F)[C@H]2C)ccc(F)c1F [Compound 266, (2R,3S,4S,5R)-3-(3,4-difluoro-2-methoxyphenyl)-4,5-dimethyl-N-(2-(6-methyl-1,6-diazaspiro[3.3]heptane-1-carbonyl)pyridin-4-yl)-5-(trifluoromethyl)tetrahydrofuran-2-carboxamide]
IC50: 0.01 to 0.1 µM
